Source: patent WO2016116777A1, “Compositions and methods for treatment of chronic lymphocytic leukemia and small lymphocytic leukemia using a btk inhibitor” (dated 2016)
Entries after “also recorded” stand apart in the source; their conditions may differ.

Columns and labels:
[1] = tested on: human platelet-mediated thrombosis; assay: In vivo human platelet thrombus formation in VWF HA1 mutant mice (laser injury)
[2] = tested on: cytochrome P450 (CYP) enzymes 3A4/5 and 2D6; details: cited from earlier work
NK cells = details: cited from earlier work
[3] = molecular target: epidermal growth factor receptor (EGFR) (Homo sapiens, UniProt P00533); details: in vitro; cited from earlier work
Chain of epidermal growth factor receptor (EGFR) (P00533 25-1210): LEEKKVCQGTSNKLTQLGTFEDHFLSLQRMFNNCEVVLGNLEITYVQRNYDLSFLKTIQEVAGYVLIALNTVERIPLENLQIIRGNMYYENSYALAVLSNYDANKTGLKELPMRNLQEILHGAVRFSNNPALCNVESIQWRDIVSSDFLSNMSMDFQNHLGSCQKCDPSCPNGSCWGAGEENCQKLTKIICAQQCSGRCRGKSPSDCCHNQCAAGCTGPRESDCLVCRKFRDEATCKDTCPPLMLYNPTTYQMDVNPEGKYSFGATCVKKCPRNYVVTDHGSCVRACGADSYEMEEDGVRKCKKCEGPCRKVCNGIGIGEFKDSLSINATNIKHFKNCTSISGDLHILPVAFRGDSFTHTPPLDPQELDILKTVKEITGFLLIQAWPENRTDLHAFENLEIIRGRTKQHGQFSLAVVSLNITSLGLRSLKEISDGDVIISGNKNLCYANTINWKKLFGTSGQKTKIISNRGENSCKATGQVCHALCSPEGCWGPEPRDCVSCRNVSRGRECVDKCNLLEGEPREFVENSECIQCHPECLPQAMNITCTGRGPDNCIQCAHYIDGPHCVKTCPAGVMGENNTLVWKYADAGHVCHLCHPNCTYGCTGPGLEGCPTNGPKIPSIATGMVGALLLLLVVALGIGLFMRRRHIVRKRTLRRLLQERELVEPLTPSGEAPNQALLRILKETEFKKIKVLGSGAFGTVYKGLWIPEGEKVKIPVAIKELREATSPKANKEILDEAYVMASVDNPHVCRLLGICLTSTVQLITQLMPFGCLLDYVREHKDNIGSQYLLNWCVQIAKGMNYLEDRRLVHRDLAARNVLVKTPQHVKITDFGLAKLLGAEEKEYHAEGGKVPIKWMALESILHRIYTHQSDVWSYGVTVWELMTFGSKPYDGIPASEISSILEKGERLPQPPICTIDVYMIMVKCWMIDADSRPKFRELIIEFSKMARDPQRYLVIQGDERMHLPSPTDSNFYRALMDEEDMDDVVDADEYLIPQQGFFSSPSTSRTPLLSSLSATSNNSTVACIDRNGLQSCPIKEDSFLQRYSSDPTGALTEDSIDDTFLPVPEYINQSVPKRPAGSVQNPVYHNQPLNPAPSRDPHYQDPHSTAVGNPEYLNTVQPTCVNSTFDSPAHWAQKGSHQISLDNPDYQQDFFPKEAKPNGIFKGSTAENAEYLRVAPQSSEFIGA

CD8+ T cell = assay: Effect on CD8+ T cell viability
B cell receptor = assay: In vitro potency in whole blood, inhibition of signals through the B cell receptor (CD69); type: cell-based; details: whole blood from four healthy donors, 2 hours incubation, anti-human IgD 18 hours, read-out: EC50, CD69 on gated CD19+ B cells
regulatory T cell (Treg) = assay: Effect on Treg development
[4] = molecular target: T1, interleukin-2 inducible tyrosine kinase (ITK) (Homo sapiens, UniProt Q08881); details: cited from earlier work
T1 sequence (Q08881 1-620): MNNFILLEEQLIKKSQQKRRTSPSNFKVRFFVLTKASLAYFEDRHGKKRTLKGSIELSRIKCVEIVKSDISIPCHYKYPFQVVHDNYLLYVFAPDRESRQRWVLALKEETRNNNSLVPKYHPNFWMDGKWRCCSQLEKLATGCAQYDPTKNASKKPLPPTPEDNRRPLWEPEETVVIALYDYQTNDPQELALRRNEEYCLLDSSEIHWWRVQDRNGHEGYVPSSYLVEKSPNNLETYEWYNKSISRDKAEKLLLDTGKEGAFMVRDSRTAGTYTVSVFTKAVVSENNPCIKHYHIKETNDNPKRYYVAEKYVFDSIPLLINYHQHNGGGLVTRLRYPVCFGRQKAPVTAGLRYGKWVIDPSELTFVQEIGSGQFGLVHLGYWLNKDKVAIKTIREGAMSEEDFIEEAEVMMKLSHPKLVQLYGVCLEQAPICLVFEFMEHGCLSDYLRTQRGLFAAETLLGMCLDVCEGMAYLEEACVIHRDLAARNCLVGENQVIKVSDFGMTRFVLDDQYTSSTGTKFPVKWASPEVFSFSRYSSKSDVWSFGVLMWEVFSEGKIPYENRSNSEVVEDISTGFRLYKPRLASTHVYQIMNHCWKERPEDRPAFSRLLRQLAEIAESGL

Th17 cells = assay: Effect on Th17 cells
[5] = tested on: NK cells (CD56+/CD107a+) with MEC-1 cells; assay: NK cell degranulation/ADCC whole blood assay with obinutuzumab-opsonised MEC-1 cells; type: cell-based, human; details: 0.1, 1 and 10 μM, MEC-1 opsonised with obinutuzumab 1 μg/mL, 4 hours
[6] = tested on: platelet collagen receptor glycoprotein VI (GPVI); assay: GPVI platelet aggregation; type: cell-based, human
CLL = details: cited from earlier work
[7] = Phase 1, previously treated CLL, monotherapy
[8] = Phase 1 portion, relapsed/refractory CLL, n=13

**Q.** With `C=CC(=O)Nc1cccc(Nc2nc(Nc3ccc(OCCOC)cc3)ncc2F)c1` [CC-292] as the compound, how does the “effect on human platelet-mediated thrombus formation” value [1] read?
**A.** The value was “interfere with thrombus formation; also recorded: effect similar to ibrutinib”.

**Q.** With `C=CC(=O)N1CCC[C@@H](n2nc(-c3ccc(Oc4ccccc4)cc3)c3c(N)ncnc32)C1` [ibrutinib] as the compound, how does the CYP substrate [2] read?
**A.** Its CYP substrate is “substrate for both cytochrome P450 (CYP) enzymes 3A4/5 and 2D6”.

**Q.** And the “effect on rituximab ADCC mediated by NK cells” value (NK cells)?
**A.** The value was “antagonizes rituximab antibody-dependent cell mediated cytotoxicity (ADCC); also recorded: undesirably antagonizes rituximab ADCC effects”.

**Q.** And the “EGFR inhibition” value [3]?
**A.** The value was “inhibits epidermal growth factor receptor (EGFR)”.

**Q.** And the “effect on CD8+ T cell viability” value (CD8+ T cell)?
**A.** The value was “strongly affects CD8 T cell viability at higher doses; also recorded: strong, negative effect”.

**Q.** And the EC50 (B cell receptor)?
**A.** Its EC50 is 6.1 nM.

**Q.** And the “effect on Treg development” value (regulatory T cell (Treg))?
**A.** Its value is “strongly increases Treg development; also recorded: increase in Treg development”.

**Q.** And the “ITK binding” value [4]?
**A.** The value was “irreversibly binds ITK”.

**Q.** What about the “effect on Th17 cells” value (Th17 cells) of the same compound?
**A.** The value was “strongly inhibits Thl7 cells; also recorded: profound inhibition”.

**Q.** And the “percentage of CD56+/CD107a+ NK cells / antagonism” value [5]?
**A.** The value was “strong reduction”.

**Q.** What about the “GPVI platelet aggregation” value [6] of the same compound?
**A.** The value was “significantly inhibits GPVI platelet aggregation”.

**Q.** What about the IC50 ([6]; Homo sapiens, Platelet) of the same compound?
**A.** Its IC50 is 130 nM.

**Q.** What does the source list for “obinutuzumab: humanized monoclonal antibody directed against CD20”?
**A.** MRD-negative complete response, number (CLL; [7]): 1; response rate (CLL; [7]): 62%; patients with Grade 3 IRRs (CLL; [8]): 15%; patients with Grade 4 IRRs (CLL; [8]): no Grade 4; patients with IRRs, all grade (CLL; [8]): 100%; patients developing IRR (CLL; Phase 2 portion, relapsed/refractory CLL): 95%; Grade 3 reactions among those (CLL; Phase 2 portion): 25%; cases developing symptoms of hypotension (CLL; Phase 2 portion): 60%
